The results in this text go back to patent US20230052667A1, “AGENT FOR MAINTAINING OR ENHANCING COLLAGEN PRODUCTION ABILITY” (Shiseido Company, Ltd., priority 2020, published 2023).

In the test the test system is human skin-derived fibroblasts. In words: Collagen quantification in fibroblasts after artificial sunlight irradiation through the wavelength conversion substance. As to conditions: artificial sunlight 80 minutes passed through substance (10% phosphor film or 1% aqueous solution, no cell contact); collagen measured 3 days after irradiation; UV-only control 14 μg collagen/well. The test is classed as cell-based. Here is the method: Preparation method: A film containing 10% Zinc Oxide phosphor, a film containing 10% magnesium titanate phosphor were used, and C-phycocyanin was dissolved in ultrapure water at a concentration of 1% and used as a solution. • Cells: human skin-derived fibroblasts • Collagen assay kit: Cosmo Bio Co., COL-001 • DNA-quantitation kit: Cosmo Bio Co., AK06 • Artificial Sunlight Irradiation System: Celick Corporation: XC-500BF
Human skin-derived fibroblasts cultured in 75 cm^2 flasks were treated with trypsin, and after harvesting the cells, the cells were seeded at a density of 2×10^5 cells/dish using medium on five 6-well plates according to the plate arrangement below. […]
After 3 days from illumination, culture supernatants were removed from wells for collagen quantitation in each treatment group and washed with PBS. Collagen in human fibroblast layers was extracted and measured according to the protocol of the collagen quantitation kit (https://search.cosmobio.co.jp/cosmo_searchp/search_gate2/docs/CSR_/COL001.20190327.pdf). In addition, the amount of DNA in samples after collagen extraction was determined for correction of collagen quantitative results according to the protocol of the Quantitative Kit of DNA (https://search.cosmobio.co.jp/cosmo)_search_p/search_gate2/docs/PMC_/AK06.20140507.pdf).

In the case of C-phycocyanin, the “collagen produced by UV-irradiated fibroblasts” value is 25 μg collagen/well.
